Results as given in patent publication US7727511B2, “Agents for imaging soluble a-beta” (priority 2003, dated 2010).

Key:
beta-amyloid fibrils = target: T1, beta-amyloid fibrils (Homo sapiens, UniProt P05067); assay: Ex vivo fluorescent binding assay, pre-formed fibrils on naive rat brain sections; details: 50 μM probe, naive rat brain section, fluorescence microscopy
T1 construct: Lyophilized human beta-amyloid 1-40 peptide (Catalog number H-1194, Bachem); purchased Bachem H-1194; host or cells: synthetic peptide
Description: B. Insoluble A-beta (1-40) fibril formation: Lyophilized human beta-amyloid 1-40 peptide (Catalog number H-1194, Bachem) was solubilized with HFIP to produce a dry clear film following the process described above for beta-amyloid 1-42. The clear film of beta-amyloid 1-40 was diluted with distilled water to achieve a 6 mg/mL concentration. […] The clear solution was diluted to 1 mg/mL with PBS, pH 7.4 to obtain a final concentration of 1 mg/mL beta-amyloid 1-40, and then incubated at 37° C. on an orbital shaker at 200 RPM for 4 days. A cloudy solution was produced, and the fibril production was confirmed by measuring changes in fluorescence of Thioflavin T, as well as by atomic force microscopy and transmission electron microscopy. […]
(§1) A 1/100th dilution of the secondary antibody Alexa Fluor 594-goat anti-mouse IgG (Molecular Probes) in PBS was applied onto the slides, and incubated at room temperature for 1.5 hours. […] Microscopic examination and imaging was performed using a Leica wide-field fluorescence microscope using filter cube A (band pass 340-380 nm with a 400 nm dichroic mirror and a long pass 400 nm suppression filter) for 49b, cube E4 (band pass 436 nm with 455 dichroic mirror and a long pass 470 nm suppression filter) for Thioflavin T, and TX2 (band pass 520-600 nm with 595 nm dichroic mirror and 645/75 band pass suppression filter) for 6E10 immunostaining. […]

[1] = target: T2, beta-amyloid 1-42 oligomer (20% biotin) (Homo sapiens, UniProt P05067); assay: SPA competition binding assay against 3H-49b on soluble oligomers; details: 50 uM unlabeled competitor, 130 nM 3H-49b
T2 construct: 12 μg beta-amyloid 1-42 oligomer (20% biotin); purchased Bachem H-5642; host or cells: synthetic peptide
Description: Lyophilized Streptavidin-Ysi beads (GE Healthcare) were reconstituted to 100 mg/mL in deioniozed water, and then further diluted in deionized water to give a suspension containing 0.25 mg/10 μl water. Unlabeled 49b and other benzofuran probes were dissolved in DMSO to give a final stock concentration of 15 mM.
For the saturation-binding assay, isotopic dilution of radiolabeled 49b with unlabeled 49b was performed. ^3H-49b was added to 500 uM of unlabeled 49b to a final concentration of 50 μCi/mL ^3H-49b. The probe solution was then serially diluted in PBS to give six solutions giving 6.6, 13.1, 26.3, 52.5, 105, or 210 uM in the final assay well. Each concentration of the probe solution was incubated with 12 μg beta-amyloid 1-42 oligomer (20% biotin) or 1-40 (20% biotin) fibrils in a total volume of 90 μl. Assays were incubated at room temp for 2 hrs before addition of 10 μL YSi-streptavidin (0.25 mg) SPA bead. Assays were set-up in triplicate in 96-well NBS plates (Costar). Assays were incubated overnight and counted the following morning. […] The specific activities of the four probes were different, however the level of activity was the same at the concentrations where the probes were tested. For this assay, 130 nM of ^3H-49b, 90 nM ^3H-cimetidine, 14 nM ^3H-caffeine, and 6 nM ^3H-AZT were tested for direct binding to 12 ug of beta-amyloid-42 oligomer (20% biotin). Assay conditions were the same as described in saturation binding assay. […]
Data analyses were performed using Sigma Plot or GraphPad Prism® version 4. Curves were fitted using non-linear regression. KD values and IC50 values were estimated from the binding curves.
For the competition binding assay between tritium-labeled 49b and various unlabeled benzofuran analogs, assays contained 130 nM ^3H-49b and 50 uM of each of the unlabeled benzofuran analogs. As controls, 10 uM and 50 uM of unlabeled 49b were included in the assays.

[2] = target: T3, beta-amyloid soluble oligomers (Homo sapiens, UniProt P05067); assay: Ex vivo fluorescent binding assay, pre-formed soluble oligomers on naive rat brain sections; details: 50 μM probe, naive rat brain section, fluorescence microscopy
T3 construct: 1 mg of human beta-amyloid 1-42 (H-5642, Bachem); purchased Bachem H-5642; host or cells: synthetic peptide
Description: A. 1 mg of human beta-amyloid 1-42 (H-5642, Bachem) and 500 uL of 1,1,1,3,3,3 hexafluoro-2-propanol (HFIP) (Aldrich) were chilled in separate bottles on ice for 30 mins. Cold beta-amyloid 1-42 was solubilized with cold HFIP. The mixture was incubated for 1 hr at room temperature until it turned clear. The resulting solution was then dried to a film under vacuum. The film was dissolved again in cold HFIP and incubated another 1 hr at room temperature. The resulting solution was separated into aliquots in several microcentrifuge tubes. HFIP was removed under vacuum, and the films were stored at −20° C. until use. […]
as §1

[3] = target: T2, beta-amyloid 1-42 oligomer (20% biotin); assay: Scintillation proximity assay (SPA), direct/saturation binding of tritium labeled probe to soluble oligomers
Description: To prepare soluble oligomer, the film was dissolved in appropriate amount of dry DMSO (Sigma), and Ham's F12 media (Biosource) or PBS (Sigma, D8537) was added and incubated at 4° C. for 24 hours (final concentration of 200 uM or 0.9 mg/mL beta-amyloid in 2% DMSO). The tube containing the soluble oligomers was centrifuged at 13,000 rpm for 5 mins, and its supernatant was transferred to a clean tube.
For SPA and atomic force microscopy (AFM) experiments, preparations of soluble oligomers and fibrils contained 20% biotinylated beta-amyloid 1-42 and 1-40, respectively (H-5642, H-5914, Bachem).
For the saturation-binding assay, isotopic dilution of radiolabeled 49b with unlabeled 49b was performed. ^3H-49b was added to 500 uM of unlabeled 49b to a final concentration of 50 μCi/mL ^3H-49b. The probe solution was then serially diluted in PBS to give six solutions giving 6.6, 13.1, 26.3, 52.5, 105, or 210 uM in the final assay well. Each concentration of the probe solution was incubated with 12 μg beta-amyloid 1-42 oligomer (20% biotin) or 1-40 (20% biotin) fibrils in a total volume of 90 μl. Assays were incubated at room temp for 2 hrs before addition of 10 μL YSi-streptavidin (0.25 mg) SPA bead. Assays were set-up in triplicate in 96-well NBS plates (Costar). Assays were incubated overnight and counted the following morning. […] Assay conditions were the same as described in saturation binding assay.
A direct binding assay using tritium labeled 49b was performed against oligomers or fibrils by scintillation proximity assay (SPA). Beta-amyloid containing 20% biotin and tritiated 49b were incubated in solution for two hours prior to addition of the Ysi-Streptavidin beads.

T2 sequence (P05067 672-713 limits assumed): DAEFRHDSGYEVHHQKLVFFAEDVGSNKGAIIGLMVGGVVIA
T3 sequence (P05067 672-713 limits assumed): as above
T1 sequence (P05067 672-711 limits assumed): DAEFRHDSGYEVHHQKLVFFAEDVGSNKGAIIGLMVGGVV

## O=Cc1ccc(-c2oc3ccccc3c2CO)o1 [Compound 49b, 2-(2-formyl-5-furanyl)-3-hydroxymethyl benzofuran]
beta-amyloid fibrils
  staining of immobilized fibrils: No staining was observed
[1]
  inhibition at 50 µM: 61%
[2]
  staining of immobilized oligomers: clear staining of oligomers with low background
[3]; SPA saturation binding of 3H-49b, isotopic dilution with unlabeled 49b
  Kd: 50 µM
[3]; SPA saturation binding, oligomers
  Bmax: 60-80 nmol/mg beta-amyloid
[3]; from Bmax, oligomers
  molar ratio probe : beta-amyloid: 1 probe: 3-4 beta-amyloid
